# Reference: patent US9339488B2, “Anti-cervical cancer compound and method of use thereof” (Hong Kong Baptist University, priority 2013, dated 2016)
# Assays:
# HeLa cells [1] = assay: Flow cytometer (FACS, PI staining) analysis of cell death; format: cell-based, human; settings: 1 and 10 μM, 24 hours; DMEM vs EBSS (serum-free medium); FIG. 4
# Procedure: 3×10^5/ml HeLa cells are treated with Griffipavixanthone (1 and 10 μM) for 24 hours. Cells are trypsinized and fixed in ice-cold 100% methanol overnight at 4° C. Cells are washed, incubated with the staining solution (100 μg/ml RNase A and 20 μg/ml PI in Phosphate Buffer Saline (PBS) with 5% NBCS) for 60 minutes, and subjected to fluorescence activated cell sorting (FACS) analysis on a FACScan flowcytometer (BD PharMingen, USA). Data are analyzed using the FlowJo software.
# HeLa cells [2] = assay: MTT cytotoxic assay; format: cell-based; settings: 0.1-20 μM, 72 hours; FIG. 3
# Procedure: Human cervical cancer cell lines HeLa are maintained in DMEM (Invitrogen) supplemented with 10% newborn calf serum (Gibco, Life technologies Corporation, New Zealand), 1% penicillin/streptomycin (Invitrogen). Cells are maintained in a humidified atmosphere containing 5% CO2 at 37° C.
# 4×10^4/ml HeLa cells are seeded in a 96-well plate and preincubated for 24 hours before treatment with Griffipavixanthone (0.1-20 μM). After 72 hours, 10 μl of MTT solution (5 mg/ml) (Sigma Chemical Company, St. Louis, Mo., USA) are added to each well for 4 hours. The resulting crystals are dissolved in DMSO. The controls are native cells treated with medium only. The spectrophotometric absorbance at 570 nm is measured using a microplate reader (Synergy HT, Bio-Tek Instruments Inc., Winooski, Vt., USA). The percentage cytotoxicity is calculated by the formula: Percentage cytotoxicity (cell death)=[1-(absorbance of experimental wells/absorbance of control wells)]×100%.
# [3] = system: HeLa cells xenograft tumor; assay: Inhibition of tumor growth in HeLa xenograft nude mouse model; format: in vivo, nude mice; settings: intratumor injection 40 ng/kg/day or 80 ng/kg/day once every other day for 18 days; FIG. 6
# Procedure: A total of 2×10^6 HeLa cells suspended in 100 μL of saline are inoculated s.c. into the right flank of 4-week-old male nude mice. Drug injections are made once the tumors reach an average volume of about 100 mm^3. Mice are divided randomly into two groups and subjected to intratumor injection of vehicle or Griffipavixanthone (40 ng/kg/day or 80 ng/kg/day) once every other day for 18 days. A total 2 μg/mouse and 4 μg/mouse are given to the two groups of mice in the 18 days treatment. Tumor volume is measured by caliper measurements (V=L×W^2/2). For intratumor injection, Griffipavixanthone is prepared in 0.5% dimethyl sulfoxide, 0.5% tween 80, and 99% PBS. […] The dosage of administered Griffipavixanthone is translated to a human dosage of 3.2 ng/kg/day to 6.4 ng/kg/day with the equation: human equivalent dose=animal dose×animal Km/human Km, where mouse Km factor is 3 and human Km factor is 37 as disclosed in Reagan-Shaw, S., Nihal, M. and Ahmad N., “Dose translation from animal to human studies revisited”, The FASEB Journal, Life Science Forum, disclosure of which is incorporated herein by reference in its entity.
# HeLa LC3-GFP cells = assay: Fluorescence microscopy of GFP-LC3 puncta formation (autophagy); format: cell-based, human; settings: 1-20 μM for 24 hours, 10 μM for 6, 12 and 24 hours, FIG. 1, 2
# Procedure: LC3, a known autophagy indicator, is used to show Griffipavixanthone's ability to induce autophagy in cancer cells and thus provide anti-cancer property. 1×10^5/ml HeLa LC3-GFP cells are seeded in a 35 mm×10 mm culture dish and preincubated for 24 hours before treatment with griffipavixanthone. HeLa LC3-GFP cells are treated with vehicle (control), 1 μM, 5 μM, 10 μM and 20 μM for 24 hours. After treatment of griffipavixanthone, the medium is removed from the dish and 4% methyl aldehyde with 0.3% triton-100 is added for fastening and permeation. The staining solution DAPI is added. Fluorescence of the bound dyes is analyzed using a laser scanning confocal microscope (FV10i, OlympusCorporation, Japan). […] Griffipavixanthone induces autophagy in cervical cancer cells at concentration and time dependent manner.
# [4] = system: leukemia cells, lung cancer cells and fibrosarcoma cells; settings: Tetrahedron Letters 1998, 39: 9103-9106; cited from earlier work
# HeLa cells [5] = assay: Western blot analysis of LC3-I, LC3-II and p62 expression; format: cell-based, human; settings: 0, 1 and 5 μM, 24 hours; FIG. 5
# Procedure: 6×10^5/ml HeLa cells are treated with Griffipavixanthone (0, 1 and 5 μM) for 24 hours. Cells are collected and cleavaged by RIPA and PMSF. Proteins are extracted and separated by 12% gel SDS-PAGE, and then are transferred to PVDF. Membranes are blocked with 5% nonfat dry milk in TBST for 0.5 hour. They are incubated and exposed with the respective primary antibodies, testing the content change of protein. The primary antibodies used to detect proteins in autophagy pathway: LC3 (16, 18 kD), p62 (62 kD) and GAPDH (37 kD).
smiles,measurement,setting,value
CC1=CC2c3c(c(O)c(O)c4oc5cc(O)cc(O)c5c(=O)c34)C(c3cc(O)c(O)c4oc5cc(O)cc(O)c5c(=O)c34)C2C(C)(C)C1 (stereo not drawn) [Griffipavixanthone],HeLa cell death (FACS),HeLa cells [1],induces HeLa cell death significantly in serum-free medium at concentration dependent manner
same,HeLa cell viability / cytotoxicity (MTT),HeLa cells [2],inhibit HeLa cell lines at concentration dependent manner
same,Tumor growth (tumor volume),[3],growth of tumor is inhibited
same,GFP-LC3 puncta formation (percentage of GFP-LC3 positive cells),HeLa LC3-GFP cells,increases GFP-LC3 puncta formation at concentration and time dependent manner
same,In vitro cytotoxicity,[4],high in vitro cytotoxity
same,"Autophagosome accumulation (LC3-I, LC3-II, p62 immunoblot)",HeLa cells [5],increases autophagosome accumulation and induces autophagy
